Measured values reported in the C3SDB collision cross section collection.

Columns and labels:
[1] = [M+H]+; instrument: TW
[2] = instrument: TW, calibrated with phosphatidylcholines (ESI+) and phosphatidylethanolamines (ESI-), doubly charged cardiolipins calibrated with poly-DL-…

Row | SMILES | collision cross section (N2) [1] [Å²] | collision cross section (N2) ([2]; [M-H]-) [Å²] | further results
1 | O=C(CCCN1CCN(c2ccccn2)CC1)c1ccc(F)cc1 [Azaperone] | 180.3 | – | –
2 | CC(NC(=O)C(NC(=O)O)C(C)C)c1nc2ccc(F)cc2s1 (centres undefined) [Benthiavalicarb] | 173.38 | – | –
3 | O=C(Nc1ccccc1-c1ccc(Cl)cc1)c1cccnc1Cl [Boscalid] | 171.67 | – | –
4 | CC(C)(C)NCC(O)c1cc(Br)c(N)c(Br)c1 (centres undefined) [Brombuterol] | 167 | – | –
5 | CCCCCCCC/C=C\CCCCCCCC(=O)OC(COC(=O)CCCCCCCCCCCCCCC)COP(=O)(O)OCC(O)COP(=O)(O)OCC(COC(=O)CCCCCCCC1CC1CCCCCCCC)OC(=O)CCCCCCCCCCCCCCC (centres undefined) [CL(69:2)] | – | – | collision cross section (N2) ([2]; [M-2H]2-): 408.93 Å²
6 | CCCCCC/C=C\CCCCCCCC(=O)OCC(COP(=O)(O)OCC(O)COP(=O)(O)OCC(COC(=O)CCCCCCCC1CC1CCCCCCCC)OC(=O)CCCCCCC/C=C\CCCCCC)OC(=O)CCCCCCC/C=C\CCCCCCCC (centres undefined) [CL(69:4)] | – | – | collision cross section (N2) ([2]; [M-2H]2-): 409.28 Å²
7 | Nc1c(Cl)cc(C(O)CNC2CCC(O)CC2)cc1Cl (centres undefined) [Clencyclohexerol] | 164.7 | – | –
8 | C[C@H]1C[C@H]2[C@@H]3CCC4=CC(=O)C=C[C@]4(C)[C@@]3(F)[C@@H](O)C[C@]2(C)[C@@]1(O)C(=O)CCl [Clobetasol] | 201.29 | – | –
9 | C[C@]12CC[C@H]3[C@@H](CCC4=C(Cl)C(=O)CC[C@@]43C)[C@@H]1CC[C@@H]2O [Clostebol] | 173.6 | – | –
10 | COP(=O)(OC)OC=C(Cl)Cl [Dichlorvos] | 133.07 | – | –
11 | O=C(O)Cc1ccccc1Nc1c(Cl)cccc1Cl [Diclofenac] | 157.2 | – | –
12 | Fc1ccc(cc1)N\3c2cc(c(F)cc2C(=O)C(/C(=O)O)=C/3)N4CCN(C)CC4 [Difloxacine] | 192.3 | – | –
13 | O=C(NC(=O)c1c(F)cccc1F)Nc1ccc(Cl)cc1 [Diflubenzuron] | 160.98 | – | –
14 | C[C@H]1c2cccc(O)c2C(=O)C2=C(O)[C@]3(O)C(=O)C(C(N)=O)=C(O)[C@@H](N(C)C)[C@@H]3[C@@H](O)[C@@H]21 [Doxycycline] | 197.4 | – | –
15 | O=C(O)\C3=C\N(c2cc(N1CCN(CC)CC1)c(F)cc2C3=O)C4CC4 [Enrofloxacine] | 194.8 | – | –
16 | CCOP(=O)(NC(C)C)Oc1ccc(S(C)(=O)=O)c(C)c1 (centres undefined) [Fenamiphos sulfone] | 179.48 | – | –
17 | CC(Cc1ccc(O)cc1)NCC(O)c1cc(O)cc(O)c1 (centres undefined) [Fenoterol] | 180.4 | – | –
18 | CCOC(=O)NCCOc1ccc(Oc2ccccc2)cc1 [Fenoxycarb] | 178.44 | – | –
19 | CC(Oc1ccc(Oc2ccc(C(F)(F)F)cn2)cc1)C(=O)O (centres undefined) [Fluazifop] | 173.47 | – | –
20 | Cc1c(Nc2ncccc2C(=O)O)cccc1C(F)(F)F [Flunixin] | 159.1 | – | –
21 | CC(C)Oc1cccc(NC(=O)c2ccccc2C(F)(F)F)c1 [Flutolanil] | 175.45 | – | –

Row | SMILES | collision cross section (N2) [1] [Å²] | collision cross section (N2) ([2]; [M-H]-) [Å²] | further results
22 | COC(=O)C(C)N(C(=O)c1ccco1)c1c(C)cccc1C (centres undefined) [Furalaxyl] | 167.15 | – | –
23 | CCCN1C[C@H](C)[C@@H](O)[C@](C)(O)[C@@H](CC)OC(=O)[C@H](C)[C@@H](O[C@H]2C[C@@](C)(OC)[C@@H](O)[C@H](C)O2)[C@H](C)[C@@H](O[C@@H]2O[C@H](C)C[C@H](N(C)C)[C@H]2O)[C@](C)(O)C[C@H]1C [Gamithromycin] | 280.6 | – | –
24 | CC(Oc1ccc(Oc2ncc(C(F)(F)F)cc2Cl)cc1)C(=O)O (centres undefined) [Haloxyfop] | 179.86 | – | –
25 | COP(=O)(OC)OC1=C(Cl)C2C=CCC12 (centres undefined) [Heptenophos] | 144.04 | – | –
26 | CCCCC(O)(Cn1cncn1)c1ccc(Cl)cc1Cl (centres undefined) [Hexaconazole] | 171.26 | – | –
27 | CC(C(=O)O)c1ccc(N2Cc3ccccc3C2=O)cc1 (centres undefined) [Indoprofen] | 166.4 | – | –
28 | CC(C)c1ncc([N+](=O)[O-])n1C [Ipronidazole] | 126.1 | – | –
29 | CCCCCCC1CC1CCCCCCCC(=O)O[C@H](CO)COP(=O)([O-])OCC[NH3+] (some centres undefined) [LPE(0:0/17:1)] | – | 207.62 | collision cross section (N2) ([2]; [M+H]+): 214.85 Å²; collision cross section (N2) ([2]; [M+Na]+): 219.32 Å²
30 | CCCCCCCCC1CC1CCCCCCCC(=O)O[C@H](CO)COP(=O)([O-])OCC[NH3+] (some centres undefined) [LPE(0:0/19:1)] | – | 214.39 | collision cross section (N2) ([2]; [M+H]+): 221.32 Å²; collision cross section (N2) ([2]; [M+Na]+): 226.07 Å²
31 | CCCCCC/C=C/CCCCCCCC(=O)OC[C@@H](O)COP(=O)([O-])OCC[NH3+] [LPE(16:1/0:0)] | – | 203.75 | collision cross section (N2) ([2]; [M+H]+): 206.28 Å²; collision cross section (N2) ([2]; [M+Na]+): 211.09 Å²
32 | CCCCCCCCCCCCCCC(=O)O[C@H](CO)COP(=O)(O)OCC(O)CO (some centres undefined) [LPG(15:0)] | – | 208.96 | –
33 | CCCCC1CC1CCCCCCCC(=O)O[C@H](CO)COP(=O)(O)OCC(O)CO (some centres undefined) [LPG(15:1)] | – | 206.44 | –
34 | CCCCCCC1CC1CCCCCCCC(=O)OC[C@@H](O)COP(=O)(O)OCC(O)CO (some centres undefined) [LPG(17:1)] | – | 214.26 | –
35 | CCCCCCCC/C=C/CCCCCCCC(=O)OC[C@@H](O)COP(=O)(O)OCC(O)CO (some centres undefined) [LPG(18:1)] | – | 217.72 | –
36 | CCCCCCCCC1CC1CCCCCCCC(=O)OC[C@@H](O)COP(=O)(O)OCC(O)CO (some centres undefined) [LPG(19:1)] | – | 221.18 | –
37 | c1ccc([C@H]2CN3CCSC3=N2)cc1 [Levamisole] | 138.2 | – | –
38 | CON(C)C(=O)Nc1ccc(Cl)c(Cl)c1 [Linuron] | 149.63 | – | –
39 | CC#Cc1cc(C)nc(Nc2ccccc2)n1 [Mepanipyrim] | 152.07 | – | –
40 | CS(=O)(=O)c1ccc(C(=O)C2C(=O)CCCC2=O)c([N+](=O)[O-])c1 [Mesotrione] | 175.66 | – | –
41 | COCC(=O)N(c1c(C)cccc1C)C(C)C(=O)OC (centres undefined) [Metalaxyl] | 159.96 | – | –
42 | COc1ccc2cc([C@H](C)C(=O)O)ccc2c1 [Naproxen] | 147.1 | – | –

Row | SMILES | collision cross section (N2) [1] [Å²] | collision cross section (N2) ([2]; [M-H]-) [Å²] | further results
43 | O=C(O)c1cccnc1Nc1cccc(C(F)(F)F)c1 [Niflumic acid] | 156.8 | – | –
44 | CCN(Cc1ccc(Cl)nc1)/C(=C/[N+](=O)[O-])NC [Nitenpyram] | 160.32 | – | –
45 | CCCCCCCC/C=C\CCCCCCCC(=O)OC(COC(=O)CCCCCCCCCCCCCCCCC)COP(=O)(O)O (centres undefined) [PA(36:1)] | – | 261.81 | –
46 | CCCCCCCCCCCCCCCC(=O)OCC(COP(=O)(O)OCCN)OC(=O)CCCCCCCCCCCCC (centres undefined) [PE(30:0)] | – | 251.05 | collision cross section (N2) ([2]; [M+H]+): 265.85 Å²
47 | CCCCCC/C=C\CCCCCCCC(=O)OCC(COP(=O)(O)OCCN)OC(=O)CCCCCCCCCCCCC (centres undefined) [PE(30:1)] | – | 248.78 | collision cross section (N2) ([2]; [M+H]+): 260.6 Å²
48 | CCCCCCCCCCCCCCCC(=O)OCC(COP(=O)(O)OCCN)OC(=O)CCCCCCCCCCCCCC (centres undefined) [PE(31:0)] | – | 253.95 | collision cross section (N2) ([2]; [M+H]+): 269.25 Å²
49 | CCCCCCCCCCCCCCCC(=O)OCC(COP(=O)(O)OCCN)OC(=O)CCCCCCCC1CC1CCCCCC (centres undefined) [PE(33:1)] | – | 259.91 | collision cross section (N2) ([2]; [M+H]+): 273.6 Å²
50 | CCCCCC/C=C\CCCCCCCC(=O)OCC(COP(=O)(O)OCCN)OC(=O)CCCCCCC/C=C\CCCCCCCC (centres undefined) [PE(34:2)] | – | 261.72 | collision cross section (N2) ([2]; [M+H]+): 271.97 Å²
51 | CCCCCCCC/C=C\CCCCCCCC(=O)OCC(COP(=O)(O)OCCN)OC(=O)CCCCCCC/C=C\CCCCCCCC (centres undefined) [PE(36:2)] | – | 269.17 | collision cross section (N2) ([2]; [M+H]+): 276.82 Å²
52 | CCCCCCCCCCCCCCCC(=O)OCC(COP(=O)(O)OCC(O)CO)OC(=O)CCCCCCCCCCCCC (centres undefined) [PG(30:0)] | – | 258.02 | collision cross section (N2) ([2]; [M+Na]+): 272.75 Å²
53 | CCCCCCCCCCCCCCCC(=O)OCC(COP(=O)(O)OCC(O)CO)OC(=O)CCCCCCCCCCCCCCC (centres undefined) [PG(32:0)] | – | 263.91 | collision cross section (N2) ([2]; [M+Na]+): 278.8 Å²
54 | CCCCCC/C=C\CCCCCCCC(=O)OCC(COP(=O)(O)OCC(O)CO)OC(=O)CCCCCCCCCCCCCCC (centres undefined) [PG(32:1)] | – | 262.68 | collision cross section (N2) ([2]; [M+Na]+): 275.15 Å²
55 | CCCCCC/C=C\CCCCCCCC(=O)OCC(COP(=O)(O)OCC(O)CO)OC(=O)CCCCCCC/C=C\CCCCCCCC (centres undefined) [PG(34:2)] | – | 267.97 | collision cross section (N2) ([2]; [M+Na]+): 278.38 Å²
56 | CCCCCC/C=C\CCCCCCCC(=O)OCC(COP(=O)(O)OCC(O)CO)OC(=O)CCCCCCCC1CC1CCCCCCCC (centres undefined) [PG(35:2)] | – | 271.85 | collision cross section (N2) ([2]; [M+Na]+): 281.82 Å²
57 | CO/C=C(/C(=O)OC)c1ccccc1COc1cccc(C(F)(F)F)n1 [Picoxystrobin] | 177.5 | – | –
58 | C[C@]12C=CC(=O)C=C1CC[C@@H]1[C@@H]2C(=O)C[C@@]2(C)[C@H]1CC[C@]2(O)C(=O)CO [Prednisone] | 180.1 | – | –
59 | CC1=NNC(=O)N(/N=C/c2cccnc2)C1 [Pymetrozine] | 150.71 | – | –
60 | CCCCCCCCSC(=O)Oc1cc(Cl)nnc1-c1ccccc1 [Pyridate] | 199.9 | – | –
61 | O=C(O)c1c(Cl)ccc2cc(Cl)cnc12 [Quinclorac] | 139.54 | – | –
62 | C=C1C[C@@]23CC[C@H]4[C@@](C)(CCC[C@@]4(C)C(=O)O)[C@@H]2CC[C@]1(O[C@@H]1O[C@H](CO)[C@@H](O)[C@H](O[C@@H]2O[C@H](CO)[C@@H](O)[C@H](O)[C@H]2O)[C@H]1O[C@@H]1O[C@H](CO)[C@@H](O)[C@H](O)[C@H]1O)C3 [Rebaudioside B] | 261.19 | – | –
